# In patent US20110144345A1, “SULFOXYIMINO-SUBSTITUTED BENZOYL DERIVATIVE AND HERBICIDE” (NIPPON SODA CO., LTD., priority 2008, published 2011):
row,melting point [°C],SMILES
1,133 to 135,Cc1ccc(C(=O)c2cnn(C)c2O)c(C)c1N=S(C)(C)=O [Example 168]
2,97 to 103,Cn1ncc(C(=O)c2ccc(-c3ccco3)c(N=S3(=O)CCCCC3)c2Cl)c1O [Example 228]
3,85 to 87,CCCOc1ccc(C(=O)c2cnn(C)c2O)c(Cl)c1N=S1(=O)CCCCC1 [Example 254]
4,165 to 167,Cn1ncc(C(=O)c2ccc(O)c(N=S3(=O)CCCCC3)c2Cl)c1O [Example 233]
5,111 to 113,CCOc1c(C(=O)c2cnn(C)c2O)ccc(OC)c1N=S1(=O)CCCCC1 [Example 156]
6,135 to 139,CC(=O)Oc1ccc(C(=O)c2cnn(C)c2O)c(Cl)c1N=S1(=O)CCCCC1 [Example 189]
7,90 to 92,COc1ccc(C(=O)c2cnn(C)c2O)c(Cl)c1N=S(C)(=O)c1cccs1 (stereo not shown) [Example 192]
8,159 to 161,CSC(=O)Oc1c(C(=O)c2ccc(OCCC3OCCO3)c(N=S3(=O)CCCCC3)c2Cl)cnn1C [Example 200]
9,159 to 162,COc1ccc(C(=O)C2=C(O)CCCC2=O)c(Cl)c1N=S(C)(=O)c1cccs1 (stereo not shown) [Example 194]
10,131 to 132,COc1ccc(C(=O)c2cnn(C)c2OCC(F)(F)F)c(Cl)c1N=S1(=O)CCCCC1 [Example 235]
11,106 to 108,Cn1ncc(C(=O)c2ccc(OCC(F)(F)C(F)(F)F)c(N=S3(=O)CCCCC3)c2Cl)c1O [Example 242]
12,95 to 97,Cn1ncc(C(=O)c2ccc(OC[S+](C)[O-])c(N=S3(=O)CCCCC3)c2Cl)c1O (stereo not shown) [Example 245]
13,99 to 101,Cn1ncc(C(=O)c2ccc(OCCC3OCCO3)c(N=S3(=O)CCCCC3)c2Cl)c1O [Example 199]
14,162 to 164,Cn1ncc(C(=O)c2cccc(N=S3(=O)CCCCC3)c2F)c1O [Example 170]
15,124 to 126,N#Cc1ccc(C(=O)C2=C(O)CCCC2=O)c(Cl)c1N=S1(=O)CCCCC1 [Example 186]
16,169 to 171,C#CCOc1ccc(C(=O)c2cnn(C)c2O)c(Cl)c1N=S1(=O)CCCCC1 [Example 205]

row,melting point [°C],SMILES
1,109 to 111,CCOc1ccc(C(=O)c2cnn(C)c2O)c(OC)c1N=S1(=O)CCCCC1 [Example 175]
2,88 to 91,COc1ccc(C(=O)c2cnn(C)c2O)c(Cl)c1N=S(C)(=O)c1ccccc1 (stereo not shown) [Example 249]
3,135 to 137,COC(=O)c1ccc(C(=O)C2=C(O)CCCC2=O)c(Cl)c1N=S(C)(C)=O [Example 160]
4,134 to 137,Cn1ncc(C(=O)c2ccc(Oc3ccccc3)c(N=S3(=O)CCCCC3)c2Cl)c1O [Example 180]
5,144 to 146,COc1ccc(C(=O)c2cnn(C)c2O)c(Br)c1N=S1(=O)CCCCC1 [Example 223]
6,104 to 106,Cn1ncc(C(=O)c2ccc(OCS(C)(=O)=O)c(N=S3(=O)CCCCC3)c2Cl)c1O [Example 241]
7,129 to 131,COc1ccc(C(=O)c2cnn(C)c2OC(=O)C2CC2)c(Cl)c1N=S1(=O)CCCCC1 [Example 246]
8,126 to 128,CCS(=O)(CC)=Nc1c(C)ccc(C(=O)c2cnn(C)c2O)c1C [Example 167]
9,153 to 155,COCCOc1ccc(C(=O)c2cnn(C)c2O)c(Cl)c1N=S1(=O)CCCCC1 [Example 212]
10,124 to 126,CCOc1c(C(=O)c2cnn(CC)c2O)ccc(OC)c1N=S1(=O)CCCCC1 [Example 163]
11,93 to 95,COCOc1ccc(C(=O)c2cnn(C)c2O)c(Cl)c1N=S1(=O)CCCCC1 [Example 221]
12,158 to 164,Cn1ncc(C(=O)c2ccc(-c3cccs3)c(N=S3(=O)CCCCC3)c2Cl)c1O [Example 214]
13,96 to 98,CCS(=O)(CC)=Nc1c(OC)ccc(C(=O)c2cnn(C)c2O)c1OC [Example 140]
14,155 to 157,CSc1c(C(=O)c2cnn(C)c2O)ccc(C(F)(F)F)c1N=S1(=O)CCCCC1 [Example 169]
15,97 to 99,Cn1ncc(C(=O)c2ccc(OCC(F)(F)F)c(N=S3(=O)CCCCC3)c2Cl)c1O [Example 144]

# The next lines start with the molecule.
row,SMILES,melting point [°C]
1,COC(=O)c1ccc(C(=O)c2cnn(C)c2O)c(Cl)c1N=S1(=O)CCOCC1 [Example 25],147 to 149
2,CSc1ccc(C(=O)C2=C(O)CCCC2=O)c(Cl)c1N=S1(=O)CCCCC1 [Example 41],178 to 180
3,COc1ccc(C(=O)c2cnn(C)c2O)c(OC)c1N=S1(=O)CCCCC1 [Example 99],116 to 118
4,Cn1ncc(C(=O)c2cccc(N=S3(=O)CCCCC3)c2)c1O [Example 35],112 to 113
5,CCS(=O)(CC)=Nc1c(C(=O)OC)ccc(C(=O)c2cnn(C)c2O)c1Cl [Example 26],69 to 73
6,COCc1ccc(C(=O)c2cnn(C)c2O)c(Cl)c1N=S1(=O)CCCCC1 [Example 52],78 to 82
7,O=C1CCCC(O)=C1C(=O)c1ccc(-c2ccccc2)c(N=S2(=O)CCCCC2)c1Cl [Example 23],166 to 168
8,CCn1ncc(C(=O)c2ccc(OC)c(N=S3(=O)CCCCC3)c2Cl)c1O [Example 4],137 to 139
9,O=C1CCCC(O)=C1C(=O)c1ccc(OCc2ccccc2)c(N=S2(=O)CCCCC2)c1Cl [Example 65],152 to 155
10,COc1ccc(C(=O)C2=C(O)CCCC2=O)c(OC)c1N=S1(=O)CCCCC1 [Example 92],129 to 131
11,COc1ccc(C(=O)C(C#N)C(=O)C2CC2)c(Cl)c1N=S1(=O)CCCCC1 (stereo not shown) [Example 5],154 to 156
12,CCOc1ccc(C(=O)c2cnn(C)c2O)c(Cl)c1N=S1(=O)CCCCC1 [Example 12],88 to 90
13,CSc1ccc(C(=O)c2cnn(C)c2O)c(Cl)c1N=S1(=O)CCCCC1 [Example 42],157 to 159
14,CCn1ncc(C(=O)c2ccc(OC)c(N=S3(=O)CCCCC3)c2[N+](=O)[O-])c1O [Example 77],190 to 192
15,CCOC(=O)c1ccc(C(=O)c2cnn(C)c2O)c(Cl)c1N=S1(=O)CCCCC1 [Example 47],88 to 91
16,Cn1ncc(C(=O)c2ccc(OC3CCCC3)c(N=S3(=O)CCCCC3)c2Cl)c1O [Example 49],145 to 148
17,CCn1ncc(C(=O)c2ccc(C(=O)OC)c(N=S3(=O)CCOCC3)c2Br)c1O [Example 74],210 to 215
18,COC(=O)c1ccc(C(=O)c2cnn(C)c2O)c(Cl)c1N=S1(=O)CCCCC1 [Example 21],204 to 206
19,COC(=O)c1ccc(C(=O)c2cnn(C)c2O)cc1N=S1(=O)CCCCC1 [Example 96],133 to 137
20,CC(C)Oc1ccc(C(=O)c2cnn(C)c2O)c(Cl)c1N=S1(=O)CCCCC1 [Example 16],139 to 141
21,CON=Cc1ccc(C(=O)c2cnn(C)c2O)c(Cl)c1N=S1(=O)CCCCC1 [Example 55],98 to 105
22,COC(=O)/C=C/c1ccc(C(=O)c2cnn(C)c2O)c(Cl)c1N=S1(=O)CCCCC1 [Example 91],145 to 150
23,Cn1ncc(C(=O)c2ccc(C#N)c(N=S3(=O)CCCCC3)c2Cl)c1O [Example 44],192 to 196
24,Cn1ncc(C(=O)c2ccc(OCc3ccccc3)c(N=S3(=O)CCCCC3)c2Cl)c1O [Example 66],95 to 97
